For 38 compounds, IC50 results are on record in article PMC13539321 (Journal of Advanced Research, 2025).

In this experiment the target is Mushroom TYR (EC 1.14.18.1) (Agaricus bisporus, UniProt C7FF04). The experiment can be described thus: biochemical. Conditions: IC50 value ± SD.
The mark [1] stands for this setting: L-dopa, substrate L-dopa (diphenolase), n = 3, screening of de novo generated compounds (Table 1).
Where [2] appears, read: L-tyrosine, substrate L-tyrosine (monophenolase), n = 3, screening of de novo generated compounds (Table 1).

Chain of Mushroom TYR (EC 1.14.18.1) (C7FF04 1-392 limits assumed): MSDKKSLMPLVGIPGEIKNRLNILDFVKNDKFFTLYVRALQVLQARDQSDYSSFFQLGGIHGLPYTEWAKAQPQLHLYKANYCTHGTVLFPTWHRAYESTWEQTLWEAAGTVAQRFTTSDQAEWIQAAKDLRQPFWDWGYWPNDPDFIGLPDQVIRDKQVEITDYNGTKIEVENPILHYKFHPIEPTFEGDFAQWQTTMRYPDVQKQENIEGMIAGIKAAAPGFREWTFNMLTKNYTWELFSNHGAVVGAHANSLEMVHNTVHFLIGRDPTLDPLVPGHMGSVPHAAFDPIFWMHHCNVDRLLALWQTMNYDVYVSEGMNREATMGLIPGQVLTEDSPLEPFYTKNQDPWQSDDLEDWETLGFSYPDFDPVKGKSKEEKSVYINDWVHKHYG

What is called IC50 is the concentration that gives 50% inhibition. A lower IC50 goes with greater potency. As to `O=C(CCc1cc(O)cc(O)c1)N1CCN(Cc2ccc(F)cc2)CC1` [Compound V-20, 3-(3,5-dihydroxyphenyl)-1-(4-(4-fluorobenzyl)piperazin-1-yl)propan-1-one], the half-inhibitory concentration (IC50) is 21.3 ± 0.8 µM (L-dopa) and 9.1 ± 0.6 µM (L-tyrosine).

Consider `O=C(CCc1cccc(O)c1)N1CCN(Cc2cccc(Cl)c2)CC1` [Compound V-10, 1-(4-(3-chlorobenzyl)piperazin-1-yl)-3-(3-hydroxyphenyl)propan-1-one], for which the IC50 by setting is: (L-dopa) 19 ± 2.2 µM; (L-tyrosine) 7.4 ± 0.4 µM.

Compound `O=C(Oc1ccc(N2CCNCC2)cc1)c1cc(O)nc2ccccc12` [XVII, 4-(piperazin-1-yl)phenyl 2-hydroxyquinoline-4-carboxylate] returned an IC50 under setting [1] of 303 ± 47.6 µM and a half-maximal inhibitory concentration (IC50) under setting [2] of 164 ± 19.8 µM.

Consider `O=C(CCc1cccc(O)c1)NCCNCc1ccc(F)cc1` [Compound V-8, N-(2-((4-fluorobenzyl)amino)ethyl)-3-(3-hydroxyphenyl)propanamide], for which the half-maximal inhibitory concentration (IC50) is, setting by setting: (L-dopa) > 800 µM; (L-tyrosine) 298 ± 16.6 µM.

On to `O=C(CCc1cccc(O)c1)NCCCNCc1ccc(F)cc1` [Compound V-9, N-(3-((4-fluorobenzyl)amino)propyl)-3-(3-hydroxyphenyl)propanamide], for which the half-maximal inhibitory concentration (IC50) (L-dopa) was > 800 µM and the IC50 (L-tyrosine) turned out to be 328 ± 4.9 µM.

As to `O=C(CCc1cccc(O)c1)N1CCN(Cc2ccccn2)CC1` [Compound V-19, 3-(3-hydroxyphenyl)-1-(4-(pyridin-2-ylmethyl)piperazin-1-yl)propan-1-one], the half-maximal inhibitory concentration (IC50) (L-dopa) was > 800 µM and the IC50 (L-tyrosine) was > 600 µM.

For `COc1cc(C(=O)N[C@@H](Cc2ccccc2)C(N)=O)ccc1O` [Compound I, (S)-N-(1-amino-1-oxo-3-phenylpropan-2-yl)-4-hydroxy-3-methoxybenzamide], the IC50 is > 800 µM under setting [1] and > 800 µM under setting [2].

As for `O=C(CCc1cccc(O)c1)N1CCN(C/C=C/c2ccc(F)cc2)CC1` [Compound V-15, (E)-1-(4-(3-(4-fluorophenyl)allyl)piperazin-1-yl)-3-(3-hydroxyphenyl)propan-1-one], the IC50 by setting is: (L-dopa) 140 ± 15.6 µM; (L-tyrosine) 41.8 ± 3.2 µM.

Regarding `N#Cc1ccc(CN2CCN(C(=O)CCc3cccc(O)c3)CC2)cc1` [Compound V-14, 4-((4-(3-(3-hydroxyphenyl)propanoyl)piperazin-1-yl)methyl)benzonitrile], the IC50 reads like this: (L-dopa) 72.6 ± 3.1 µM; (L-tyrosine) 83.2 ± 3.2 µM.

Regarding `O=C(CCc1cccc(O)c1)NC1CCN(Cc2ccccc2)CC1` [IV, N-(1-benzylpiperidin-4-yl)-3-(3-hydroxyphenyl)propanamide], the half-maximal inhibitory concentration (IC50) under setting [1] is > 800 µM and the concentration for half-maximal inhibition (IC50) under setting [2] turned out to be 198 ± 7.6 µM.

For `O=C(/C=C/c1ccc(O)cc1O)N1CCN(Cc2ccc(F)cc2)CC1` [Compound V-22, (E)-3-(2,4-dihydroxyphenyl)-1-(4-(4-fluorobenzyl)piperazin-1-yl)prop-2-en-1-one], the IC50 reads like this: (L-dopa) 0.085 ± 0.016 µM; (L-tyrosine) 0.122 ± 0.008 µM.

In the case of `COc1ccc(CN2CCN(C(=O)/C=C/c3ccc(O)cc3O)CC2)cc1` [Compound V-26, (E)-3-(2,4-dihydroxyphenyl)-1-(4-(4-methoxybenzyl)piperazin-1-yl)prop-2-en-1-one], half-maximal inhibition (L-dopa) (IC50) was put at 0.02 ± 0.002 µM and the midpoint of inhibition (L-tyrosine), the IC50, lay at 0.023 ± 0.002 µM.

Take `O=C(CCc1ccc(O)cc1O)N1CCN(Cc2ccc(Cl)cc2)CC1` [Compound V-31, 1-(4-(4-chlorobenzyl)piperazin-1-yl)-3-(2,4-dihydroxyphenyl)propan-1-one]: half-maximal inhibition (L-dopa) (IC50) was put at 0.153 ± 0.011 µM and the midpoint of inhibition (L-tyrosine), the IC50, lay at 0.187 ± 0.003 µM.

As to `COc1cccc(/C=C/C(=O)Nc2n[nH]c3ccccc23)c1` [VII, (E)-N-(1H-indazol-3-yl)-3-(3-methoxyphenyl)acrylamide], the IC50 under setting [1] is > 800 µM and the 50% inhibitory concentration (IC50) under setting [2] is > 800 µM.

As to `Cc1ccc(CN2CCN(C(=O)CCc3cccc(O)c3)CC2)cc1` [Compound V-11, 3-(3-hydroxyphenyl)-1-(4-(4-methylbenzyl)piperazin-1-yl)propan-1-one], the concentration for half-maximal inhibition (IC50) is, setting by setting: (L-dopa) > 400 µM; (L-tyrosine) 20.1 ± 0.7 µM.

As to `NC(=O)[C@H](Cc1ccccc1)NC(=O)CCc1cccc(O)c1` [II, (S)-N-(1-amino-1-oxo-3-phenylpropan-2-yl)-3-(3-hydroxyphenyl)propanamide], the IC50 under setting [1] is > 800 µM and it took 423 ± 38.3 µM to reach half-maximal inhibition under setting [2] (IC50).

Turning to `Cc1nc2cc(C(=O)N3CCCN(Cc4ccccc4)CC3)ccc2[nH]1` [XIV, (4-benzyl-1,4-diazepan-1-yl)(2-methyl-1H-benzo[d]imidazol-5-yl)methanone], the half-inhibitory concentration (IC50) by setting is: under setting [1], > 800 µM; under setting [2], 449 ± 36.1 µM.

As to `Cc1ccccc1CNC(=O)CCc1cccc(O)c1` [X, 3-(3-hydroxyphenyl)-N-(2-methylbenzyl)propanamide], the IC50 stood at 462 ± 50.4 µM under setting [1] and 60.9 ± 1.9 µM under setting [2].

For `O=C(c1cccc(OCc2ccccc2)c1)N1CCN(c2ccc(O)cc2)CC1` [XV, (3-(benzyloxy)phenyl)(4-(4-hydroxyphenyl)piperazin-1-yl)methanone], the 50% inhibitory concentration (IC50) was > 800 µM under setting [1] and > 800 µM under setting [2].

Take `O=C(CCc1cccc(O)c1)N1CCN(Cc2ccccc2F)CC1` [Compound V-1, 1-(4-(2-fluorobenzyl)piperazin-1-yl)-3-(3-hydroxyphenyl)propan-1-one]: the concentration for half-maximal inhibition (IC50) by setting is: (L-dopa) > 800 µM; (L-tyrosine) 204 ± 3.9 µM.

In the case of `O=C(/C=C/c1ccc(O)cc1O)N1CCN(Cc2ccc(Cl)cc2)CC1` [Compound V-32, (E)-1-(4-(4-chlorobenzyl)piperazin-1-yl)-3-(2,4-dihydroxyphenyl)prop-2-en-1-one], the IC50 amounted to 0.021 ± 0.002 µM (L-dopa) and 0.024 ± 0.002 µM (L-tyrosine).

In the case of `O=C(CCc1ccccc1O)N1CCN(Cc2ccc(F)cc2)CC1` [Compound V-3, 1-(4-(4-fluorobenzyl)piperazin-1-yl)-3-(2-hydroxyphenyl)propan-1-one], the IC50 is 66.1 ± 4.6 µM (L-dopa) and 60.6 ± 4.5 µM (L-tyrosine).

On to `CCOc1ccc(CN2CCN(C(=O)/C=C/c3ccc(O)cc3O)CC2)cc1` [Compound V-28, (E)-3-(2,4-dihydroxyphenyl)-1-(4-(4-ethoxybenzyl)piperazin-1-yl)prop-2-en-1-one], for which the midpoint of inhibition (L-dopa), the IC50, lay at 0.019 ± 0.0002 µM and it took 0.021 ± 0.001 µM to reach half-maximal inhibition (L-tyrosine) (IC50).

As to `O=C(CCc1cccc(O)c1)N1CCN(CCc2ccccc2)CC1` [Compound V-16, 3-(3-hydroxyphenyl)-1-(4-phenethylpiperazin-1-yl)propan-1-one], the IC50 (L-dopa) is > 800 µM and the half-maximal inhibitory concentration (IC50) (L-tyrosine) is > 300 µM.

On to `O=C(/C=C/c1ccc(O)cc1O)N1CCN(Cc2cccc(Cl)c2)CC1` [Compound V-30, (E)-1-(4-(3-chlorobenzyl)piperazin-1-yl)-3-(2,4-dihydroxyphenyl)prop-2-en-1-one], for which the IC50 (L-dopa) was determined as 0.022 ± 0.001 µM and the concentration for half-maximal inhibition (IC50) (L-tyrosine) stood at 0.021 ± 0.0003 µM.

In the case of `CCc1ccc(CN2CCN(C(=O)CCc3cccc(O)c3)CC2)cc1` [Compound V-12, 1-(4-(4-ethylbenzyl)piperazin-1-yl)-3-(3-hydroxyphenyl)propan-1-one], the IC50 by setting is: (L-dopa) > 800 µM; (L-tyrosine) > 800 µM.

On to `O=C(CCc1cccc(O)c1)N1CC2CN(Cc3ccc(F)cc3)CC2C1` (stereo not shown) [Compound V-7, 1-(5-(4-fluorobenzyl)hexahydropyrrolo[3,4-c]pyrrol-2(1H)-yl)-3-(3-hydroxyphenyl)propan-1-one], for which the IC50 by setting is: (L-dopa) 119 ± 5.2 µM; (L-tyrosine) 25.8 ± 1.1 µM.

For the compound `CCOc1ccc(CN2CCN(C(=O)CCc3ccc(O)cc3O)CC2)cc1` [Compound V-27, 3-(2,4-dihydroxyphenyl)-1-(4-(4-ethoxybenzyl)piperazin-1-yl)propan-1-one], the half-inhibitory concentration (IC50) (L-dopa) worked out at 0.596 ± 0.026 µM and half-maximal inhibition (L-tyrosine) (IC50) required 0.497 ± 0.07 µM.

Consider `O=C(CCc1ccc(O)cc1)N1CCN(Cc2ccc(F)cc2)CC1` [Compound V-4, 1-(4-(4-fluorobenzyl)piperazin-1-yl)-3-(4-hydroxyphenyl)propan-1-one], for which the IC50 runs as follows: (L-dopa) 26.1 ± 4.6 µM; (L-tyrosine) 2.9 ± 0.1 µM.

As for `O=C(C=Cc1ccccc1)NCCc1cccc(O)c1` [XI, N-(3-hydroxyphenethyl)cinnamamide], the IC50 is > 800 µM under setting [1] and 622 ± 82.8 µM under setting [2].

Turning to `Cc1nc2ccc(C(=O)NCc3ccc(O)cc3)cc2[nH]1` [XIII, N-(4-hydroxybenzyl)-2-methyl-1H-benzo[d]imidazole-6-carboxamide], the IC50 is > 800 µM under setting [1] and 99.7 ± 15.3 µM under setting [2].

Regarding `O=C(O)c1ccc(CN2CCC(C(=O)c3ccccc3)CC2)cc1` [IX, 4-((4-benzoylpiperidin-1-yl)methyl)benzoic acid], the IC50 under setting [1] is > 800 µM and the IC50 under setting [2] is > 800 µM.

Consider `Cc1ccc(CN2CCN(C(=O)CCc3ccc(O)cc3O)CC2)cc1` [Compound V-23, 3-(2,4-dihydroxyphenyl)-1-(4-(4-methylbenzyl)piperazin-1-yl)propan-1-one], for which the IC50 is, setting by setting: (L-dopa) 0.134 ± 0.008 µM; (L-tyrosine) 0.183 ± 0.013 µM.

Turning to `O=C(NCc1ccc(F)cc1)c1cc(O)nc2ccccc12` [VI, N-(4-fluorobenzyl)-2-hydroxyquinoline-4-carboxamide], the IC50 runs as follows: under setting [1], > 800 µM; under setting [2], > 800 µM.

On to `O=C(CCc1ccc(O)cc1O)N1CCN(Cc2cccc(Cl)c2)CC1` [Compound V-29, 1-(4-(3-chlorobenzyl)piperazin-1-yl)-3-(2,4-dihydroxyphenyl)propan-1-one], for which the IC50 runs as follows: (L-dopa) 0.189 ± 0.005 µM; (L-tyrosine) 0.216 ± 0.019 µM.

Consider `N#Cc1ccc(CN2CCN(C(=O)CCc3ccc(O)cc3O)CC2)cc1` [Compound V-33, 4-((4-(3-(2,4-dihydroxyphenyl)propanoyl)piperazin-1-yl)methyl)benzonitrile], for which the IC50 runs as follows: (L-dopa) 0.237 ± 0.011 µM; (L-tyrosine) 0.299 ± 0.007 µM.

As to `O=C(CCc1cccc(O)c1)N1CCN(Cc2cccs2)CC1` [Compound V-18, 3-(3-hydroxyphenyl)-1-(4-(thiophen-2-ylmethyl)piperazin-1-yl)propan-1-one], the IC50 is > 800 µM (L-dopa) and > 300 µM (L-tyrosine).

`NC(=O)[C@H](Cc1ccccc1)NC(=O)c1cccc(O)c1` [III, (S)-N-(1-amino-1-oxo-3-phenylpropan-2-yl)-3-hydroxybenzamide]: the concentration for half-maximal inhibition (IC50) under setting [1] is > 800 µM and the half-inhibitory concentration (IC50) under setting [2] was > 800 µM.
